# Measurements published in patent publication US8101550B2, “Anthranilic acid diamide derivative with hetero-aromatic and hetero-cyclic substituents” (Bayer Cropscience AG, priority 2006, dated 2012).
# Experiment: log P determination by HPLC on reverse-phase column (EEC Directive 79/831 Annex V.A8)
# Type: physicochemical
# Summary of the method: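 Log P was derived from retention times by linear interpolation between successive unbranched alkan-2-one standards (C3–C16). The standards and samples ran on a C18 reverse-phase column at 43 °C with a 10→95% acetonitrile gradient in 0.1% formic acid (pH 2.7). The method follows EEC Directive 79/831 Annex V.A8.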
row,Compound,logP
1,Cc1cc(Cl)cc(C(=O)NC(C)C)c1NC(=O)c1cc(Cn2nnc(-c3ccccc3)n2)nn1-c1ncccc1Cl [I-1-166],3.60
2,Cc1cc(Cl)cc(C(=O)N=S(C(C)C)C(C)C)c1NC(=O)c1cc(Cn2nc(C(F)(F)F)nc2C(F)(F)F)nn1-c1ncccc1Cl [I-1-167],4.44
3,Cc1cc(Cl)cc(C(=O)NC(C)C)c1NC(=O)c1cc(Cn2nnn(-c3ccc(Cl)cc3)c2=O)nn1-c1ncccc1Cl [I-1-168],3.79
4,Cc1cc(C#N)cc(C(=O)NC(C)C)c1NC(=O)c1cc(Cn2cc(C(F)(F)C(F)(F)F)c(C(F)(F)C(F)(F)F)n2)nn1-c1ncccc1Cl [I-1-169],4.55
5,CNC(=O)c1cc(C#N)cc(C)c1NC(=O)c1cc(Cn2cc(C(F)(F)C(F)(F)F)c(C(F)(F)C(F)(F)F)n2)nn1-c1ncccc1Cl [I-1-170],4.08
6,CNC(=O)c1cc(C#N)cc(C)c1NC(=O)c1cc(Cn2cc(Cl)c(C(F)(F)C(F)(F)F)n2)nn1-c1ncccc1Cl [I-1-171],3.44
7,Cc1cc(C#N)cc(C(=O)NC(C)C)c1NC(=O)c1cc(Cn2cc(Cl)c(C(F)(F)C(F)(F)F)n2)nn1-c1ncccc1Cl [I-1-172],3.87
8,Cc1cc(C#N)cc(C(=O)NC2CC2)c1NC(=O)c1cc(Cn2cc(Cl)c(C(F)(F)C(F)(F)F)n2)nn1-c1ncccc1Cl [I-1-173],3.59
9,Cc1cc(C#N)cc(C(N)=O)c1NC(=O)c1cc(Cn2cc(Cl)c(C(F)(F)C(F)(F)F)n2)nn1-c1ncccc1Cl [I-1-174],3.20
10,Cc1cc(C#N)cc(C(=O)NCC#N)c1NC(=O)c1cc(Cn2cc(Cl)c(C(F)(F)C(F)(F)F)n2)nn1-c1ncccc1Cl [I-1-175],3.40
11,CNC(=O)c1cc(C#N)cc(C)c1NC(=O)c1cc(Cn2nc(C(F)(F)F)nc2C(F)(F)F)nn1-c1ncccc1Cl [I-1-176],3.11
12,Cc1cc(C#N)cc(C(=O)NC(C)C)c1NC(=O)c1cc(Cn2nc(C(F)(F)F)nc2C(F)(F)F)nn1-c1ncccc1Cl [I-1-177],3.53
13,Cc1cc(C#N)cc(C(=O)NC2CC2)c1NC(=O)c1cc(Cn2nc(C(F)(F)F)nc2C(F)(F)F)nn1-c1ncccc1Cl [I-1-178],3.31
14,Cc1cc(C#N)cc(C(N)=O)c1NC(=O)c1cc(Cn2nc(C(F)(F)F)nc2C(F)(F)F)nn1-c1ncccc1Cl [I-1-179],2.91
15,Cc1cc(C#N)cc(C(=O)NCC#N)c1NC(=O)c1cc(Cn2nc(C(F)(F)F)nc2C(F)(F)F)nn1-c1ncccc1Cl [I-1-180],3.11
16,CNC(=O)c1cc(C#N)cc(C)c1NC(=O)c1cc(Cn2ccc(C(F)(F)F)n2)nn1-c1ncccc1Cl [I-1-181],2.57
17,Cc1cc(C#N)cc(C(=O)NC(C)C)c1NC(=O)c1cc(Cn2ccc(C(F)(F)F)n2)nn1-c1ncccc1Cl [I-1-182],2.96
18,Cc1cc(C#N)cc(C(=O)NC2CC2)c1NC(=O)c1cc(Cn2ccc(C(F)(F)F)n2)nn1-c1ncccc1Cl [I-1-183],2.75
19,Cc1cc(C#N)cc(C(N)=O)c1NC(=O)c1cc(Cn2ccc(C(F)(F)F)n2)nn1-c1ncccc1Cl [I-1-184],2.42
20,Cc1cc(C#N)cc(C(=O)NCC#N)c1NC(=O)c1cc(Cn2ccc(C(F)(F)F)n2)nn1-c1ncccc1Cl [I-1-185],2.62
21,CNC(=O)c1cc(C#N)cc(C)c1NC(=O)c1cc(Cn2nc(C(F)(F)F)cc2C(F)(F)F)nn1-c1ncccc1Cl [I-1-186],3.35

row,Compound,logP
1,Cc1cc(C#N)cc(C(=O)NC(C)C)c1NC(=O)c1cc(Cn2nc(C(F)(F)F)cc2C(F)(F)F)nn1-c1ncccc1Cl [I-1-187],3.80
2,Cc1cc(C#N)cc(C(=O)NC2CC2)c1NC(=O)c1cc(Cn2nc(C(F)(F)F)cc2C(F)(F)F)nn1-c1ncccc1Cl [I-1-188],3.56
3,Cc1cc(C#N)cc(C(N)=O)c1NC(=O)c1cc(Cn2nc(C(F)(F)F)cc2C(F)(F)F)nn1-c1ncccc1Cl [I-1-189],3.15
4,Cc1cc(C#N)cc(C(=O)NCC#N)c1NC(=O)c1cc(Cn2nc(C(F)(F)F)cc2C(F)(F)F)nn1-c1ncccc1Cl [I-1-190],3.28
5,Cc1cc(C#N)cc(C(=O)NC2CC2)c1NC(=O)c1cc(Cn2cc(C(F)(F)C(F)(F)F)c(C(F)(F)C(F)(F)F)n2)nn1-c1ncccc1Cl [I-1-191],4.29
6,Cc1cc(C#N)cc(C(N)=O)c1NC(=O)c1cc(Cn2cc(C(F)(F)C(F)(F)F)c(C(F)(F)C(F)(F)F)n2)nn1-c1ncccc1Cl [I-1-192],3.91
7,Cc1cc(C#N)cc(C(=O)NCC#N)c1NC(=O)c1cc(Cn2cc(C(F)(F)C(F)(F)F)c(C(F)(F)C(F)(F)F)n2)nn1-c1ncccc1Cl [I-1-193],4.04
8,CSCC(C)NC(=O)c1cc(F)cc(C)c1NC(=O)c1cc(Cn2cc(Cl)c(C(F)(F)C(F)(F)F)n2)nn1-c1ncccc1Cl (stereo not shown) [I-1-195],4.13
9,Cc1cc(F)cc(C(=O)NCc2ccco2)c1NC(=O)c1cc(Cn2cc(Cl)c(C(F)(F)C(F)(F)F)n2)nn1-c1ncccc1Cl [I-1-196],3.90
10,Cc1cc(C#N)cc(C(=O)NC2C3CCCCC32)c1NC(=O)c1cc(Cn2cc(Cl)c(C(F)(F)C(F)(F)F)n2)nn1-c1ncccc1Cl (stereo not shown) [I-1-197],4.50
11,Cc1cc(C#N)cc(C(=O)NC2CC2CO)c1NC(=O)c1cc(Cn2cc(Cl)c(C(F)(F)C(F)(F)F)n2)nn1-c1ncccc1Cl (stereo not shown) [I-1-198],3.11
12,Cc1cc(F)cc(C(=O)NC2C3CCCCC32)c1NC(=O)c1cc(Cn2cc(Cl)c(C(F)(F)C(F)(F)F)n2)nn1-c1ncccc1Cl (stereo not shown) [I-1-199],4.55
13,Cc1cc(Cl)cc(C(=O)NCc2ccco2)c1NC(=O)c1cc(Cn2cc(Cl)c(C(F)(F)C(F)(F)F)n2)nn1-c1ncccc1Cl [I-1-201],4.21
14,Cc1cc(Cl)cc(C(=O)NC2CCCC2N)c1NC(=O)c1cc(Cn2cc(Cl)c(C(F)(F)C(F)(F)F)n2)nn1-c1ncccc1Cl (stereo not shown) [I-1-202],2.30
15,Cc1cc(F)cc(C(=O)NC2CC2CO)c1NC(=O)c1cc(Cn2cc(Cl)c(C(F)(F)C(F)(F)F)n2)nn1-c1ncccc1Cl (stereo not shown) [I-1-203],3.14
16,Cc1cc(F)cc(C(=O)NC(C)CS(C)(=O)=O)c1NC(=O)c1cc(Cn2cc(Cl)c(C(F)(F)C(F)(F)F)n2)nn1-c1ncccc1Cl (stereo not shown) [I-1-204],3.34
17,Cc1cc(Cl)cc(C(=O)NC2C3CCCCC32)c1NC(=O)c1cc(Cn2cc(Cl)c(C(F)(F)C(F)(F)F)n2)nn1-c1ncccc1Cl (stereo not shown) [I-1-205],4.88
18,CSCC(C)NC(=O)c1cc(Cl)cc(C)c1NC(=O)c1cc(Cn2cc(Cl)c(C(F)(F)C(F)(F)F)n2)nn1-c1ncccc1Cl (stereo not shown) [I-1-206],4.41
19,Cc1cc(Cl)cc(C(=O)NC2CC2CO)c1NC(=O)c1cc(Cn2cc(Cl)c(C(F)(F)C(F)(F)F)n2)nn1-c1ncccc1Cl (stereo not shown) [I-1-207],3.37
20,Cc1cc(C#N)cc(C(=O)NCc2ccco2)c1NC(=O)c1cc(Cn2cc(Cl)c(C(F)(F)C(F)(F)F)n2)nn1-c1ncccc1Cl [I-1-208],3.90
21,CSCC(C)NC(=O)c1cc(C#N)cc(C)c1NC(=O)c1cc(Cn2cc(Cl)c(C(F)(F)C(F)(F)F)n2)nn1-c1ncccc1Cl (stereo not shown) [I-1-209],4.05

row,Compound,logP
1,Cc1cc(C#N)cc(C(=O)NC(C)CS(C)(=O)=O)c1NC(=O)c1cc(Cn2cc(Cl)c(C(F)(F)C(F)(F)F)n2)nn1-c1ncccc1Cl (stereo not shown) [I-1-210],3.34
2,Cc1cc(C#N)cc(C(=O)NC(C)C[S+](C)[O-])c1NC(=O)c1cc(Cn2cc(Cl)c(C(F)(F)C(F)(F)F)n2)nn1-c1ncccc1Cl (stereo not shown) [I-1-211],3.02
3,Cc1cc(Cl)cc(C(=O)NC(C)C[S+](C)[O-])c1NC(=O)c1cc(Cn2cc(Cl)c(C(F)(F)C(F)(F)F)n2)nn1-c1ncccc1Cl (stereo not shown) [I-1-212],3.25
4,Cc1cc(Cl)cc(C(=O)NC(C)CS(C)(=O)=O)c1NC(=O)c1cc(Cn2cc(Cl)c(C(F)(F)C(F)(F)F)n2)nn1-c1ncccc1Cl (stereo not shown) [I-1-213],3.60
5,Cc1cc(Cl)cc(C(=O)NC(CN2CCCCC2)C2CC2)c1NC(=O)c1cc(Cn2cc(Cl)c(C(F)(F)C(F)(F)F)n2)nn1-c1ncccc1Cl (stereo not shown) [I-1-214],2.77
6,CCN(CC)CC(C)NC(=O)c1cc(Cl)cc(C)c1NC(=O)c1cc(Cn2cc(Cl)c(C(F)(F)C(F)(F)F)n2)nn1-c1ncccc1Cl (stereo not shown) [I-1-215],2.62
7,Cc1cc(F)cc(C(=O)NC(C)C[S+](C)[O-])c1NC(=O)c1cc(Cn2cc(Cl)c(C(F)(F)C(F)(F)F)n2)nn1-c1ncccc1Cl (stereo not shown) [I-1-216],3.03
8,Cc1cc(F)cc(C(=O)NC(C)C)c1NC(=O)c1cc(Cn2cc(C(F)(F)C(F)(F)F)c(C(F)(F)C(F)(F)F)n2)nn1-c1ncccc1Cl [I-1-217],4.47
9,Cc1cc(F)cc(C(=O)NC(C)C)c1NC(=O)c1cc(Cn2nc(C(F)(F)F)nc2C(F)(F)F)nn1-c1ncccc1Cl [I-1-218],3.55
10,CNC(=O)c1cc(F)cc(C)c1NC(=O)c1cc(Cn2nc(C(F)(F)F)nc2C(F)(F)F)nn1-c1ncccc1Cl [I-1-219],3.12
11,CNC(=O)c1cc(F)cc(C)c1NC(=O)c1cc(Cn2cc(C(F)(F)C(F)(F)F)c(C(F)(F)C(F)(F)F)n2)nn1-c1ncccc1Cl [I-1-220],4.06
12,CNC(=O)c1cc(F)cc(C)c1NC(=O)c1cc(Cn2nc(C(F)(F)F)cc2C(F)(F)F)nn1-c1ncccc1Cl [I-1-221],3.32
13,CNC(=O)c1cc(F)cc(C)c1NC(=O)c1cc(Cn2ccc(C(F)(F)F)n2)nn1-c1ncccc1Cl [I-1-222],2.58
14,CNC(=O)c1cc(F)cc(C)c1NC(=O)c1cc(Cn2cc(Cl)c(C(F)(F)C(F)(F)F)n2)nn1-c1ncccc1Cl [I-1-223],3.47
15,Cc1cc(F)cc(C(=O)NC(C)C)c1NC(=O)c1cc(Cn2cc(Cl)c(C(F)(F)C(F)(F)F)n2)nn1-c1ncccc1Cl [I-1-224],3.89
16,Cc1cc(F)cc(C(=O)NC(C)C)c1NC(=O)c1cc(Cn2nc(C(F)(F)F)cc2C(F)(F)F)nn1-c1ncccc1Cl [I-1-225],3.77
17,Cc1cc(F)cc(C(=O)NC(C)C)c1NC(=O)c1cc(Cn2ccc(C(F)(F)F)n2)nn1-c1ncccc1Cl [I-1-226],3.00
18,CNC(=O)c1cc(I)cc(C)c1NC(=O)c1cc(Cn2nc(C(F)(F)F)cc2C(F)(F)F)nn1-c1ncccc1Cl [I-1-227],3.87
19,CCNC(=O)c1cc(I)cc(C)c1NC(=O)c1cc(Cn2nc(C(F)(F)F)cc2C(F)(F)F)nn1-c1ncccc1Cl [I-1-228],4.06
